Key:
[1] = tested on: accessible chromatin regions in OT1 T-cells; assay: ATAC-seq of OT1 T-cells; type: cell-based, mouse; conditions: day 7, 5 μM day 0-3, compared to DMSO-treated T-cells
Protocol: Methods: OT1 splenocytes were activated and cultured with 5 μM AG221 or DMSO as described in Example 2. After 3 days, the cells were washed and the IDH2 inhibitor was washed out as well. The cells were then cultured for an additional 4 days in the absence of AG221. At day 7, the cells were collected and washed once with PBS. 50′000 cells were collected for ATAC-seq while the remaining cell pellet was lysed in extraction buffer (20 mM Tris HCl, 150 mM NaCl, 1% Triton X-100, 10% glycerol, 5 mM EDTA) supplemented with Complete Mini protease inhibitor (Roche) for wester blotting.
For ATAC-seq cells were transposed with the Illumina Tagment DNA Enzyme and Buffer Small Kit according to the protocol described by Buenrostro et al. (Curr Protoc Mol Biol. 2015 Jan 5;109:21.29.1-21.29.9.). Fragments were sequenced on an Illumina NextSeq 500 instrument.

[2] = tested on: Sell (CD62L) mRNA in OT1 cells; assay: Sell (CD62L) gene expression by quantitative real time RT-PCR in OT1 cells; type: cell-based, mouse
Protocol: Example 2. In vitro culture of splenocytes comprising CD8+ T-cells. OT1 splenocytes (as described in Example 1) were cultured for 3 days at a concentration of 10^6 cells per mL in RPMI medium (Gibco 61870-01) supplemented with 10% FCS, (Gibco 10270-106), 1% Penicillin/Streptomycin (P/S; Gibco 15070-063), 0.1% 13-mercaptoethanol, 1% HEPES (Gibco 15630-080), 1× Non-essential amino acids (Gibco 11140-035), 1% L-glutamine (Gibco 25030-081), 1 mM Sodium Pyruvate (Gibco 11360-039), 100 U/m1 hIL-2 (Glaxo-IMB) and 1 μg/ml ovalbumin N4 peptide (SIINFEKL). To evaluate the effects of IDH2 inhibition on T-cell differentiation, 5 μM of a small molecule IDH2 inhibitor (AG221 or AGI6780) or a DMSO solvent control was added during this 3-day culture period. […] At day 3 and day 7, the activation and differentiation state of CD8+ T-cells was determined by gene expression analysis, flow cytometry and extracellular metabolic flux analyses (see Example 3).
a) Gene expression analysis by quantitative real time RT-PCR RNA was isolated with the RNeasy mini kit (Qiagen) and cDNA was generated by reverse transcription (Applied Biosystems). […] Gene expression was calculated relative to […] (FW primer: 5′ aga ctg ata cat acg cct gca g 3′, RV primer: 5′ gca ggt tca aat gaa tct tca g 3′).

[3] = tested on: transferred CD8+ CD45.1+ OT1 T-cells; assay: Phenotype of adoptively transferred OT1 CD8+ T-cells in blood of B16-OVA tumor-bearing mice; type: in vivo, mouse
From the text: Antibody panel to determine the frequency and differentiation and activation state of adoptively transferred T-cells in the blood (see Example 6): CD8-PE-texas-Red, CD45.1-Pacific blue, CD45.2-FITC, CD127-PE, KLRG1-PE-Cy7, CD62L-APC, CD44-APC-Cy7, and CD27-PerCP-Cy5.5.
Example 5. In vivo tumor model to characterize the phenotype and efficacy of cultured CD8+ T-cells upon adoptive cell transfer. An in vivo tumor model was used to determine the efficacy of in vitro cultured CD8+ T-cells treated with an IDH2 inhibitor in eliminating cancer cells (FIG. 10). B16-OVA melanoma cells (see Example 1) were cultured in DMEM (GIBCO) with 10% FCS and 1% P/S before their subcutaneous injection into the mouse flank. Each mouse received 100′000 cells in a volume of 200 μl of PBS. 6 days after B16-OVA cell injection, tumors were measured, mice were randomized and lymphodepleted by irradiation (5 Gray). 7 days after B16-Ova cell injection, mice were adoptively transferred with activated CD45.1^+ OT-1 splenocytes. The CD45.1^+ OT-1 splenocytes had been cultured in vitro for 7 days as described in Example 2, wherein the IDH2 inhibitor was AG221, collected and purified on a Ficoll gradient to separate dead and live splenocytes. Live splenocytes, almost exclusively consisting of CD8+ T-cells (about 98%), were counted with Trypan blue stain 0.4%. 100′000 live splenocytes were transferred into CD45.2^+ host mice by tail vein injection.
Following the adoptive cell transfer (ACT), mice received a vaccination of CpG (50 μg/mouse) and N4 Ova peptide (10 μg/mouse) diluted in PBS to obtain a total volume of 100 μl/mouse, injected subcutaneously at the tail base to further stimulate the transferred cells. An additional no-ACT control group received only a PBS injection (neither cells, CpG nor peptide). Tumors were measured every 2 days with a digital caliper and the tumor volume was calculated according to the formula: V=π×[d2×D]/6, wherein d is the smallest tumor axis and D is the largest tumor axis.
Example 6. Maintenance of the CD8+ T-cell memory phenotype in vivo. Blood samples were collected at day 14 and day 18 post tumor engraftment (see Example 5). […] Transferred CD8+ T-cells were CD8^+ and CD45.1^+. Among those, MPECs were KLRG1^low and CD127^+, SLECs were KLRG1^high and CD127^−, and TCM were CD44^+ and CD62L^+.

[4] = day 14, compared to DMSO control

For `CC(C)(O)CNc1nc(Nc2ccnc(C(F)(F)F)c2)nc(-c2cccc(C(F)(F)F)n2)n1` [AG221, 2-methyl-1-[[4-[6-(trifluoromethyl)pyridin-2-yl]-6-[[2-(trifluoromethyl)pyridin-4-yl]amino]-1,3,5-triazin-2-yl]amino]propan-2-ol], the “more accessible regions in the DNA (ATAC-seq)” value [1] was 1633, the “Sell (CD62L) mRNA expression increase” value ([2]; day 3, 5 μM, versus DMSO) was 3 fold and the “Sell (CD62L) mRNA expression increase” value ([2]; day 7, 5 μM day 0-3, versus DMSO) was 7 fold. The “frequency of transferred T-cells” value ([3]; day 14 (day 7 post ACT), cells treated in vitro before ACT, versus DMSO) was “significantly higher”, the “proportion of central memory T cells (TCM) within transferred CD8+ T-cells” value [3, 4] was “significantly higher” and the “proportion of memory precursor effector cells (MPECs) within transferred CD8+ T-cells” value [3, 4] was “significantly higher”. The “proportion of short-lived effector cells (SLECs) within transferred CD8+ T-cells” value [3, 4] was “significantly lower”.

Reference: patent publication US20220325242A1, “IDH2 INHIBITION FOR PRODUCING T-CELLS AND B-CELLS WITH A MEMORY PHENOTYPE” (Universite de Lausanne, priority 2019, published 2022)
